Measured values as given in patent publication US10010623B2, “Lysosome-cleavable linker” (UCL Business PLC, priority 2012, dated 2018).

- melting point: 107 to 110 °C
SMILES: O=C1OC(=O)C(Br)=C1Br [compound 1, 2,3-dibromo-maleic anhydride]
